From ChEMBL document CHEMBL1141454, “Structural and functional basis of cyclooxygenase inhibition” (J Med Chem, 2007)

How the values were obtained:
[1] = Inhibition of cyclooxygenase
[2] = Selectivity for COX1 over COX2
[3] = Inhibition of mouse COX2 R120A mutant
[4] = Inhibition of mouse COX2 Y355F mutant
[5] = Inhibition of mouse COX2 S530A mutant
[6] = target: T1, Prostaglandin G/H synthase 2 (Homo sapiens, UniProt P35354)
T1 sequence (P35354 whole entry): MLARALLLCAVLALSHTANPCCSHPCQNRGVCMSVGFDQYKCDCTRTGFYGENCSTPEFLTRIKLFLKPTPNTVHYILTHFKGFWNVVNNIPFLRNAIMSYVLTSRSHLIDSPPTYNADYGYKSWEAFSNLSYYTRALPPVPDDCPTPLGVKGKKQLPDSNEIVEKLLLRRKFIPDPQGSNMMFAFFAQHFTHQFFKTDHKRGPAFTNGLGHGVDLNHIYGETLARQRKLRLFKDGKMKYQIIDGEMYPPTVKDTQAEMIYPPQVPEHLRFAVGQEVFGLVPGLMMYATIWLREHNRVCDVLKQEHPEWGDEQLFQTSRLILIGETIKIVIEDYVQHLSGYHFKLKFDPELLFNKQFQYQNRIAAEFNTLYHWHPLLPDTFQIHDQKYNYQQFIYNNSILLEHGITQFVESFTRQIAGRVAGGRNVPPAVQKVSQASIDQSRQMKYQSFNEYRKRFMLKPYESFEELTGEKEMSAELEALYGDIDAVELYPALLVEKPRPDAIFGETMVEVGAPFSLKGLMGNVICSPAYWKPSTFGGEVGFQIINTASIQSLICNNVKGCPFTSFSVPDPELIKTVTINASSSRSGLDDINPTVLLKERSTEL

[7] = target: Prostaglandin G/H synthase 1 (Homo sapiens, UniProt P23219)
[8] = species on record: Mus musculus; test: Inhibition of mouse COX2 V349A mutant
[9] = species on record: Mus musculus; test: Inhibition of mouse COX2 V349L mutant

Chain of Prostaglandin G/H synthase 1 (P23219 whole entry): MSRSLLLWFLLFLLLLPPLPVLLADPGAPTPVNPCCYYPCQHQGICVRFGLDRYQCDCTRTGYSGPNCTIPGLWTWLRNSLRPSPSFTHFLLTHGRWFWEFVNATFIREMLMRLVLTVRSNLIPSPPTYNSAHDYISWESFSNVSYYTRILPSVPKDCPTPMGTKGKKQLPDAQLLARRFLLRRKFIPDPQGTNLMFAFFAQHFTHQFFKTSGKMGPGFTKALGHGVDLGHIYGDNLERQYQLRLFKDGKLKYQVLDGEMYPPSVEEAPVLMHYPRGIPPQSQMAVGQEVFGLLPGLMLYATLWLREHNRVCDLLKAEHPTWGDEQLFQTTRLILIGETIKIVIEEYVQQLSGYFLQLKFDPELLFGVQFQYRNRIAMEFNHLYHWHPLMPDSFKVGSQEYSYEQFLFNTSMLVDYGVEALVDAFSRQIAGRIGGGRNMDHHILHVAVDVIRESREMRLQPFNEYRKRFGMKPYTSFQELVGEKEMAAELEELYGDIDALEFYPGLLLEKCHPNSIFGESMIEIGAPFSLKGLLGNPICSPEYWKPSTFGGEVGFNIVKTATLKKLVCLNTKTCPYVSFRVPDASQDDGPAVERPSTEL

SMILES | IC50 [6] [µM] | IC50 [7] [µM] | other results
CC(=O)Oc1ccccc1C(=O)O [ASPIRIN] | – | – | Ki [1]: 20000 µM; Selectivity ratio [2]: 10
O=C(O)Cc1ccccc1Nc1c(Cl)cccc1Cl [DICLOFENAC] | – | – | IC50 [3]: 0.257 µM; IC50 [4]: 0.137 µM; IC50 [5]: > 50 µM
Cc1ccc(Nc2c(F)cccc2Cl)c(CC(=O)O)c1 [LUMIRACOXIB] | 0.007 | > 10 | –
CCOc1cccc(OCC)c1-c1ccc(C(C)C(=O)O)cc1F (configuration not stated) | 0.1 | 7.7 | –
COc1ccc2c(c1)c(CC(=O)NCCc1ccccc1)c(C)n2C(=O)c1ccc(Cl)cc1 | – | > 66 | –
COc1ccc2c(c1)c(CC(=O)O)c(C)n2C(=O)c1ccc(Cl)cc1 | – | – | Activity [8]: 0.08 µM; Activity [9]: 4 µM
COc1ccc2c(c1)c(CCOC(=O)c1ccc(Cl)cc1)c(C)n2Cc1ccc(Br)cc1 | – | > 66 | –
COc1ccc2c(c1)c(CC(=O)OCCc1ccccc1)c(C)n2C(=O)c1ccc(Cl)cc1 | – | > 66 | –
COc1ccc2c(c1)c(CCNC(=O)c1ccc(Cl)cc1)c(C)n2Cc1ccc(Br)cc1 | – | > 66 | –
C/C(=N/OCc1ccccc1Nc1c(Cl)cccc1Cl)C(=O)O | 0.1 | > 1 | –
